In patent publication US11285227B2, “Trifunctional constructs with tunablepharmacokinetics useful in imaging and anti-tumor therapies” (CORNELL UNIVERSITY, priority 2017, dated 2022):
Like-named read-outs stand apart in the source and are kept apart here. Marks after values point to notes of the source that are not given here. Blank lines part the entries; values can stand above or below the molecule they belong to.

Tests used:
[1] = tested on: LNCaP xenograft tumor-bearing mice; assay: Biodistribution studies of 177Lu-labeled ligands in LNCaP xenograft mice; assay type: in vivo; conditions: for Max. Tumor Uptake: corresponding 177Lu-labeled compound
Description: (§1) Inoculation of mice with xenografts: All animal studies were approved by the Institutional Animal Care and Use Committee of Weill Cornell Medicine and were undertaken in accordance with the guidelines set forth by the USPHS Policy on Humane Care and Use of Laboratory Animals. Animals were housed under standard conditions in approved facilities with 12 h light/dark cycles. Food and water was provided ad libitum throughout the course of the studies. Hairless male nu/nu mice were purchased from the Jackson Laboratory. For inoculation in mice, LNCaP cells were suspended at 4×10^7 cells/mL in a 1:1 mixture of PBS:Matrigel (BD Biosciences). Each mouse was injected in the left flank with 0.25 mL of the cell suspension. The mice were imaged when the tumors reached approximately 200-400 mm^3, while biodistributions were conducted when tumors were in the range 100-400 mm^3.
Biodistribution studies of ^177Lu-labeled ligands in LNCaP xenograft mice: LNCaP xenograft tumor-bearing mice (5 per time point per compound) were injected intravenously with a bolus injection of 348-851 kBq (9.4-23 μCi) and 37-50 ng (23-25 pmol) of each ligand. The mice were sacrificed at 4, 24 and 96 h post injection. A blood sample was removed, and a full biodistribution study was conducted on the following organs (with contents): heart, lungs, liver, small intestine, large intestine, stomach, spleen, pancreas, kidneys, muscle, bone and tumor. Tissues were weighed and counted on a 2470 Wizard^2 Automatic Gamma Counter (Perkin Elmer). Counts were corrected for decay and for activity injected, and tissue uptake was expressed as percent injected dose per gram (% ID/g). Standard error measurement was calculated for each data point.

PSMA on LNCaP cells = PSMA on LNCaP cells (Homo sapiens, UniProt Q04609); assay: Multi-concentration competitive binding assay against 99mTc-MIP-1427 (Section 1.3); set-up: host or cells: LNCaP
PSMA on LNCaP cells, sequence (Q04609 whole entry): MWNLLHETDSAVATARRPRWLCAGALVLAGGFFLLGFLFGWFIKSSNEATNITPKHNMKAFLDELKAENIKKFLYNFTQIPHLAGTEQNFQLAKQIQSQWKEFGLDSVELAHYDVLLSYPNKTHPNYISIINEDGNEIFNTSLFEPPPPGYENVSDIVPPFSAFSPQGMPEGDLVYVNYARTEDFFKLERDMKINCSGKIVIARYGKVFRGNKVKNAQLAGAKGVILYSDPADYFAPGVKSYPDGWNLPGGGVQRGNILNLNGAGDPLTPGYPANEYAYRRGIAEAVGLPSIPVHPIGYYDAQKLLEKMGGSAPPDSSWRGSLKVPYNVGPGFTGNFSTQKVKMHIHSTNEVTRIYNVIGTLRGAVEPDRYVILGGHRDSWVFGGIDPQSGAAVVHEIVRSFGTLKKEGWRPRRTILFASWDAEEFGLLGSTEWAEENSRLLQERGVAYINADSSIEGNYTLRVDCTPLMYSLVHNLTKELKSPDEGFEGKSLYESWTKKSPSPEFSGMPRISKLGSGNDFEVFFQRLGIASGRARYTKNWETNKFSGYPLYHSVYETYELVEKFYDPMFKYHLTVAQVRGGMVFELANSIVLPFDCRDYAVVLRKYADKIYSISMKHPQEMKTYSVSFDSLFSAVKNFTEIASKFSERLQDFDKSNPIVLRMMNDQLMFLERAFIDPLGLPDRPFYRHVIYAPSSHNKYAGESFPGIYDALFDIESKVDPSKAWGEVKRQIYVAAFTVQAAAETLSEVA
Description: Cell Culture: The PSMA expressing human prostate cancer cell line, LNCaP, was obtained from the American Type Culture Collection. Cell culture supplies were obtained from Invitrogen unless otherwise noted. LNCaP cells were maintained in RPMI-1640 medium supplemented with 10% fetal bovine serum (Hyclone), 4 mM L-glutamine, 1 mM sodium pyruvate, 10 mM N-2-hydroxyethylpiperazine-N-2-ethanesulfonic acid (HEPES), 2.5 mg/mL D-glucose, and 50 μg/mL gentamicin in a humidified incubator at 37° C./5% CO2. Cells were removed from flasks for passage or for transfer to 12-well assay plates by incubating them with 0.25% trypsin/ethylenediaminetetraacetic acid (EDTA).
In vitro determination of IC50: IC50 values of the non-labeled, metal-free ligands were determined by screening in a multi-concentration competitive binding assay against ^99mTc-((7S,12S,16S)-1-(1-(carboxymethyl)-1H-imidazol-2-yl)-2-((1-(carboxymethyl)-1H-imidazol-2-yl)methyl)-9,14-dioxo-2,8,13,15-tetraazaoctadecane-7,12,16,18-tetracarboxylic acid technetium tricarbonyl complex) (^99mTc-MIP-1427) for binding to PSMA on LNCaP cells, according to previously described methods [18,19] with small modifications. Briefly, LNCaP cells were plated 48 h prior to the experiment to achieve a density of approximately 5×10^5 cells/well (in triplicate) in RPMI-1640 medium supplemented with 0.25% bovine serum albumin. The cells were incubated for 2 h with 1 nM ^99mTc-MIP-1427 in serum-free RPMI-1640 medium in the presence of 0.001-10,000 nM test compounds. Radioactive incubation media was then removed by pipette and the cells were washed twice using 1 mL ice-cold PBS 1× solution. Cells were harvested from the plates following treatment with 1 mL 1M NaOH and transferred to tubes for radioactive counting using a 2470 Wizard^2 Automatic Gamma Counter (Perkin Elmer). Standard solutions (10% of activity added to each well) were prepared to enable decay correction. IC50 values were determined by fitting the data points to a sigmoidal Hills1 curve in Origin software.

[2] = C57BL/6 mice, tail vein, 10-50 kBq; 15 min, 1 h, 5 h
Description: C57BL/6 mice were injected via tail vein with 10-50 kBq of each radiometal complex and were sacrificed after 15 min, 1 h, or 5 h.

[3] = tested on: LNCaP xenograft tumor-bearing mice; assay: Dosimetry (dose integrals from 177Lu biodistribution); assay type: in vivo
Description: Dosimetry: The dosimetry was calculated assuming a linear interpolation between the three time points. The average injected dose per organ was calculated by using the average of the activity and organ weights of the mice at that time point. Intermediate time points at every 4 hours were generated using the linear approximation and all time points were corrected for decay during the time interval between points. These curves were integrated using a trapezoidal approximation and the sum used to determine the residence time.

[4] = tested on: LNCaP xenograft tumor-bearing mice; assay: µPET/CT imaging of 66Ga-RPS ligands in LNCaP xenograft mice; assay type: in vivo
Description: as §1
Imaging of ^66Ga-RPS ligands in LNCaP xenograft mice: LNCaP xenograft tumor-bearing mice (2-3 per compound) injected intravenously with a bolus injection of 0.56-5.4 MBq (15-145 μCi) of the ^66Ga-labeled ligand. The specific activity of the tracers was in the range 14.8-47 MBq/pmol (0.4-1.27 mCi/pmol). The mice were imaged using μPET/CT (Inveon™; Siemens Medical Solutions, Inc.) at 1, 3, 6 and 24 h post-injection following inhalation anesthetization with isoflurane. Total acquisition time was 30 min for the 1 h, 3 h and 6 h images, and 60 min for 24 h time point. A CT scan was obtained immediately before the acquisition for both anatomical co-registration and attenuation correction. Images were reconstructed using the Inveon™ software supplied by the vendor. Image-derived tumor and kidney uptake was estimated by comparison to a 10% injected dose per cubic mm (% ID/mm^3) standard introduced into the imaging field of view. The standard was prepared by dilution of 10% of the injected activity to 1 mL with saline. Volumes of interest (VOIs) were drawn with the aid of the CT and confirmed by PET. The contents of the VOIs were integrated and the calculated counts were converted to % ID/mm^3 by direct comparison to the aforementioned standard following correction for activity injected.

[5] = non-labeled, metal-free ligands, competitive binding in LNCaP cells vs 1 nM 99mTc-MIP-1427, 2 h, read-out: IC50

Structure (SMILES): O=C(O)CC[C@H](NC(=O)N[C@@H](CCCCNC(=O)Nc1cccc(-c2cn(CCOCCOCCOCCOCCC(=O)N[C@@H](CCCCNC(=S)Nc3ccc(CC4CN(CC(=O)O)CCN(CC(=O)O)CCN(CC(=O)O)CCN4CC(=O)O)cc3)C(=O)N[C@@H](CCCCNC(=O)Cc3ccc(I)cc3)C(=O)O)nn2)c1)C(=O)O)C(=O)O (stereo partly drawn) [RPS-061, (((1S)-1-carboxy-5-(3-(3-(1-((17S,20S)-20-carboxy-27-(4-iodophenyl)-15,18,26-trioxo-17-(4-(3-(4-((1,4,7,10-tetrakis(carboxymethyl)-1,4,7,10-tetraazacyclododecan-2-yl)methyl)phenyl)thioureido)butyl)-3,6,9,12-tetraoxa-16,19,25-triazaheptacosyl)-1H-1,2,3-triazol-4-yl)phenyl)ureido)pentyl)carbamoyl)-L-glutamic acid]
Max. Tumor Uptake ([1]; a = 4 h p.i.): 20.4 % ID/g
IC50 (PSMA on LNCaP cells; [5]): 4.1 nM

Structure (SMILES): O=C(O)CC[C@H](NC(=O)N[C@@H](CCCCNC(=O)Nc1cccc(-c2cn(CCOCCOCCOCCOCCOCCOCCOCCOCCC(=O)N[C@@H](CCCCNC(=S)Nc3ccc(CC4CN(CC(=O)O)CCN(CC(=O)O)CCN(CC(=O)O)CCN4CC(=O)O)cc3)C(=O)N[C@@H](CCCCNC(=O)Cc3ccc(I)cc3)C(=O)O)nn2)c1)C(=O)O)C(=O)O (stereo partly drawn) [RPS-066, (((1S)-1-carboxy-5-(3-(3-(1-((29S,32S)-32-carboxy-39-(4-iodophenyl)-27,30,38-trioxo-29-(4-(3-(4-((1,4,7,10-tetrakis(carboxymethyl)-1,4,7,10-tetraazacyclododecan-2-yl)methyl)phenyl)thioureido)butyl)-3,6,9,12,15,18,21,24-octaoxa-28,31,37-triazanonatriacontyl)-1H-1,2,3-triazol-4-yl)phenyl)ureido)pentyl)carbamoyl)-L-glutamic acid]
Max. Tumor Uptake ([1]; a = 4 h p.i.): 18.7 % ID/g
IC50 (PSMA on LNCaP cells; [5]): 5.2 nM

Structure (SMILES): O=C([O-])c1cccc(CN2CCOCCOCCN(Cc3cccc(C(=O)[O-])n3)CCOCCOCC2)n1.[225Ac+3] [[^225Ac(macropa)]^+]
Biodistribution profile (clearance) [2]: rapidly cleared from mice, with very little activity measured in blood by 1 h post injection
Organ accumulation / in vivo stability of the complex [2]: did not accumulate in any organ

Structure (SMILES): O=C([O-])CN1CCN(CC(=O)[O-])CCN(CC(=O)[O-])CCN(CC(=O)[O-])CC1.[225Ac+3] [[^225Ac(DOTA)]^−, reference compound]
Biodistribution profile (clearance) [2]: appeared to clear more rapidly through the urine

Structure (SMILES): O=C(O)CC[C@H](NC(=O)N[C@@H](CCCCNC(=O)Nc1cccc(-c2cn(CCOCCOCCOCCC(=O)N[C@@H](CCCCNC(=S)Nc3ccc(CC4CN(CC(=O)O)CCN(CC(=O)O)CCN(CC(=O)O)CCN4CC(=O)O)cc3)C(=O)N[C@@H](CCCCNC(=O)Cc3ccc(I)cc3)C(=O)O)nn2)c1)C(=O)O)C(=O)O (stereo partly drawn) [RPS-063, (((1S)-1-carboxy-5-(3-(3-(1-((14S,17S)-17-carboxy-24-(4-iodophenyl)-12,15,23-trioxo-14-(4-(3-(4-((1,4,7,10-tetrakis(carboxymethyl)-1,4,7,10-tetraazacyclododecan-2-yl)methyl)phenyl)thioureido)butyl)-3,6,9-trioxa-13,16,22-triazatetracosyl)-1H-1,2,3-triazol-4-yl)phenyl)ureido)pentyl)carbamoyl)-L-glutamic acid]
Max. Tumor Uptake ([1]; a = 4 h p.i.): 30.0 % ID/g
IC50 (PSMA on LNCaP cells): 1.5 ± 0.3 nM

Structure (SMILES): O=C(O)CC[C@H](NC(=O)N[C@@H](CCCCNC(=O)Nc1cccc(-c2cn(CCOCCOCCOCCOCCOCCOCCC(=O)N[C@@H](CCCCNC(=S)Nc3ccc(CC4CN(CC(=O)O)CCN(CC(=O)O)CCN(CC(=O)O)CCN4CC(=O)O)cc3)C(=O)N[C@@H](CCCCNC(=O)Cc3ccc(I)cc3)C(=O)O)nn2)c1)C(=O)O)C(=O)O (stereo partly drawn) [RPS-069, (((1S)-1-carboxy-5-(3-(3-(1-((23S,26S)-26-carboxy-33-(4-iodophenyl)-21,24,32-trioxo-23-(4-(3-(4-((1,4,7,10-tetrakis(carboxymethyl)-1,4,7,10-tetraazacyclododecan-2-yl)methyl)phenyl)thioureido)butyl)-3,6,9,12,15,18-hexaoxa-22,25,31-triazatritriacontyl)-1H-1,2,3-triazol-4-yl)phenyl)ureido)pentyl)carbamoyl)-L-glutamic acid]
Max. Tumor Uptake ([1]; a = 4 h p.i.): 17.0 % ID/g
IC50 (PSMA on LNCaP cells; [5]): 3.8 nM

Now from value to molecule:

Max. Tumor Uptake ([1]; b = 24 h p.i.): 26.9 ± 2.0^b % ID/g
IC50 (PSMA on LNCaP cells; [5]): 2.1 ± 0.1 nM
Structure (SMILES): O=C(O)CC[C@H](NC(=O)N[C@@H](CCCCNC(=O)Nc1cccc(-c2cnnn2CC(=O)N[C@@H](CCCCNC(=S)Nc2ccc(CC3CN(CC(=O)O)CCN(CC(=O)O)CCN(CC(=O)O)CCN3CC(=O)O)cc2)C(=O)N[C@@H](CCCCNC(=O)Cc2ccc(I)cc2)C(=O)O)c1)C(=O)O)C(=O)O (stereo partly drawn) [RPS-068, (((1S)-1-carboxy-5-(3-(3-(1-(2-(((2S)-1-(((S)-1-carboxy-5-(2-(4-iodophenyl)acetamido)pentyl)amino)-1-oxo-6-(3-(4-((1,4,7,10-tetrakis(carboxymethyl)-1,4,7,10-tetraazacyclododecan-2-yl)methyl)phenyl)thioureido)hexan-2-yl)amino)-2-oxoethyl)-1H-1,2,3-triazol-5-yl)phenyl)ureido)pentyl)carbamoyl)-L-glutamic acid]

Tumor uptake (in words) ([1]; 4-96 h p.i.): high and remained high
Blood activity (in words) ([1]; 4 h p.i.): highest blood activity
Tumor uptake ([1]; 4 h p.i.): 21.8±2.8 % ID/g
Kidney uptake ([1]; 24 h p.i.): 87.3±6.7 % ID/g
Tumor uptake ([1]; 96 h p.i.): 14.9±1.5 % ID/g
Tumor-to-kidney ratio ([1]; 96 h p.i.): 1.56±0.23
Dose integral in the tumor relative to 177Lu-PSMA-617 ([3]; over 96 h): nearly four times higher
Structure (SMILES): O=C(O)CCC(NC(=O)NC(CCCCNC(=O)Nc1cccc(-c2cnnn2CC(=O)NC(CCCCNC(=S)Nc2ccc(CC3CN(CC(=O)O)CCN(CC(=O)O)CCN(CC(=O)O)CCN3CC(=O)O)cc2)C(=O)NC(CCCCNC(=O)Cc2ccc(I)cc2)C(=O)O)c1)C(=O)O)C(=O)O (stereo not shown) [^177Lu-RPS-068, metal not drawn]

Tumor uptake (image-derived) ([4]; 24 h post injection): 1.1±0.4 % ID/cm^3
Maximum tumor uptake (image-derived) ([4]; maximum at 1 h post injection): 3.1±0.4 % ID/cm^3
Structure (SMILES): O=C(O)CCC(NC(=O)NC(CCCCNC(=O)C(Cc1ccc2ccccc2c1)NC(=O)C1CCC(CNC(=O)CN2CCN(CC(=O)O)CCN(CC(=O)O)CCN(CC(=O)O)CC2)CC1)C(=O)O)C(=O)O (stereo not shown) [^66Ga-PSMA-617, metal not drawn, reference compound]

Kidney uptake (image-derived) ([4]; 24 h post injection): 1.9±0.3 % ID/cm^3
Maximum tumor uptake (image-derived) ([4]; maximum at 3 h post injection): 9.7±2.0 % ID/cm^3
Structure (SMILES): O=C(O)CCC(NC(=O)NC(CCCCNC(=O)Nc1cccc(-c2cnnn2CC(=O)NC(CCCCNC(=S)Nc2ccc(CC3CN(CC(=O)O)CCN(CC(=O)O)CCN(CC(=O)O)CCN3CC(=O)O)cc2)C(=O)NC(CCCCNC(=O)Cc2ccc(I)cc2)C(=O)O)c1)C(=O)O)C(=O)O (stereo not shown) [^66Ga-RPS-068, metal not drawn]

Max. Tumor Uptake ([1]; a = 4 h p.i.): 14.4 ± 2.5 % ID/g
IC50 (PSMA on LNCaP cells; [5]): 6.6 ± 0.7 nM
Structure (SMILES): O=C(O)CCC(NC(=O)NC(CCCCNC(=O)C(Cc1ccc2ccccc2c1)NC(=O)C1CCC(CNC(=O)CN2CCN(CC(=O)O)CCN(CC(=O)O)CCN(CC(=O)O)CC2)CC1)C(=O)O)C(=O)O (stereo not shown) [PSMA-617, reference compound]

Kidney uptake ([1]; 4 h p.i.): 14.1±3.1 % ID/g
Tumor uptake ([1]; 4 h p.i.): 14.4±1.1 % ID/g
Tumor uptake ([1]; 96 h p.i.): 3.5±0.3 % ID/g
Tumor-to-kidney ratio ([1]; 96 h p.i.): 14.39±2.2
Ratio of tumor dose integral to kidney dose integral ([3]; over the 96 h): 1.95
Structure (SMILES): O=C(O)CCC(NC(=O)NC(CCCCNC(=O)C(Cc1ccc2ccccc2c1)NC(=O)C1CCC(CNC(=O)CN2CCN(CC(=O)O)CCN(CC(=O)O)CCN(CC(=O)O)CC2)CC1)C(=O)O)C(=O)O (stereo not shown) [^177Lu-PSMA-617, metal not drawn, reference compound]
